Source: paper PMC8012715, “Mechanism of NanR gene repression and allosteric induction of bacterial sialic acid metabolism” (Nature Communications, 2021)

Target: T1, NanR (Escherichia coli, UniProt P0A8W0)
T1 construct: crystals by in situ chymotrypsin proteolysis
T1 sequence (P0A8W0 1-263): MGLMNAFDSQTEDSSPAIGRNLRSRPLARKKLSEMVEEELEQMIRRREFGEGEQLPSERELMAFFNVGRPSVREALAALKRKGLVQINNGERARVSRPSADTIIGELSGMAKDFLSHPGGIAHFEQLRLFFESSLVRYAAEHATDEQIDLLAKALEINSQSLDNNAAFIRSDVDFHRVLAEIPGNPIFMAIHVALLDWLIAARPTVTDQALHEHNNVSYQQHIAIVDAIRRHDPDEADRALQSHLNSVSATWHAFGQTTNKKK
Assay: isothermal titration calorimetry
Conditions: 20 mM Tris-HCl pH 8.0, 150 mM NaCl; 8 °C; no DNA; Zn2+-loaded protein; effector-binding domain; allosteric

SMILES: CC(=O)N[C@H]1[C@H]([C@H](O)[C@H](O)CO)OC(O)(C(=O)O)C[C@@H]1O (stereo partly shown) [Neu5Ac]
- Kd: 16 µM
